Data published in patent publication US20250154169A1, “COMPOUNDS AND METHODS FOR MODULATING SPLICING” (REMIX THERAPEUTICS INC., priority 2021, published 2025).
Where two headings read alike, the source gives them in different places.

Tests used:
Type in all cases: cell-based, human
HTT mRNA [1] = assay: Splicing RT-qPCR assay, HTT canonical (CJ) and alternative (AJ) junction mRNA
In short: (§1)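 One-step RT-qPCR on cell lysates, CJ and AJ isoforms quantified; housekeeping normalization GAPDH/GUSB (K562) or PPIA (A673). Cells: A673 in DMEM/10% FBS or K562 in IMDM/10% FBS. Compounds 11-pt 3-fold, top 10 uM, 24 h, 37 °C, 5% CO2.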

MYB mRNA = assay: Splicing RT-qPCR assay, MYB canonical (CJ) and alternative (AJ) junction mRNA
In short: as §1

SMN2 mRNA = assay: Splicing RT-qPCR gene panel, SMN2 canonical junction (CJ) mRNA; conditions: Tables 4A/4B, read-out: SMN2 (IC50, decrease in CJ mRNA, gene panel)
In short: (§2)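 Canonical-junction mRNA levels were quantified by RT-qPCR in lysates, using ΔΔCt against a housekeeping gene (GAPDH, GUSB or PPIA) and DMSO wells, expressed as percentage response. Cells (A673 or K562) had been exposed for 24 h at 37° C. to 11 three-fold compound concentrations up to 10 uM, DMSO ≤0.25%.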

Target C mRNA = assay: Splicing RT-qPCR gene panel, Target C canonical junction (CJ) mRNA; conditions: Tables 4A/4B, read-out: Target C (IC50, decrease in CJ mRNA, gene panel)
In short: as §2

HTT mRNA [2] = assay: Splicing RT-qPCR gene panel, HTT canonical junction (CJ) mRNA; conditions: Tables 4A/4B, read-out: HTT (IC50, decrease in CJ mRNA, gene panel)
In short: as §2

[3] = Homo sapiens, 24 h, A673 or K562 cells, 24 hours compound treatment, read-out: HTT CJ (IC50, decrease in canonical junction mRNA)
[4] = Homo sapiens, A673 or K562 cells, 24 hours compound treatment, read-out: HTT AJ (AC50, increase in alternative junction mRNA)
[5] = Homo sapiens, 24 h, A673 or K562 cells, 24 hours compound treatment, RT-qPCR, read-out: MYB AJ (AC50, increase in alternative junction mRNA)
[6] = Homo sapiens, 24 h, A673 or K562 cells, 24 hours compound treatment, RT-qPCR, read-out: MYB CJ (IC50, decrease in canonical junction mRNA)
[7] = Homo sapiens, Tables 4A/4B, canonical junction qPCR panel, read-out: MYB (IC50, decrease in CJ mRNA, gene panel)
[8] = Homo sapiens, Table 3B, alternative junction mRNA, read-out: HTT AJ (AC50, increase in AJ mRNA)
[9] = Homo sapiens, Table 3B, canonical junction mRNA, read-out: HTT CJ (IC50, decrease in CJ mRNA)
[10] = Homo sapiens, Table 3B, canonical junction mRNA, RT-qPCR, read-out: MYB CJ (IC50, decrease in CJ mRNA)
[11] = Homo sapiens, Table 3B, alternative junction mRNA, RT-qPCR, read-out: MYB AJ (AC50, increase in AJ mRNA)

| SMILES | IC50 (HTT mRNA [1]; [3]) [nM] | AC50 (HTT mRNA [1]; [4]) [nM] | AC50 (MYB mRNA; [5]) [nM] | IC50 (MYB mRNA; [6]) [nM] | IC50 (MYB mRNA; [7]) [nM] | IC50 (SMN2 mRNA; Homo sapiens) [nM] | IC50 (Target C mRNA; Homo sapiens) [nM] | IC50 (HTT mRNA [2]; Homo sapiens) [nM] | AC50 (HTT mRNA [1]; [8]) [nM] | IC50 (HTT mRNA [1]; [9]) [nM] | IC50 (MYB mRNA; [10]) [nM] | AC50 (MYB mRNA; [11]) [nM] | AC50 (HTT mRNA [1]; Table 3B, alternative junction mRNA, read-out: HTT AJ (AC50, increase in AJ mRNA)) [nM] | IC50 (HTT mRNA [1]; Table 3B, canonical junction mRNA, read-out: HTT CJ (IC50, decrease in CJ mRNA)) [nM] | AC50 (MYB mRNA; Table 3B, alternative junction mRNA, RT-qPCR, read-out: MYB AJ (AC50, increase in AJ mRNA)) [nM] | IC50 (MYB mRNA; Table 3B, canonical junction mRNA, RT-qPCR, read-out: MYB CJ (IC50, decrease in CJ mRNA)) [nM] | IC50 (MYB mRNA; Tables 4A/4B, canonical junction qPCR panel, read-out: MYB (IC50, decrease in CJ mRNA, gene panel)) [nM] | IC50 (SMN2 mRNA) [nM] | IC50 (Target C mRNA) [nM] | IC50 (HTT mRNA [2]) [nM] |
| --- | --- | --- | --- | --- | --- | --- | --- | --- | --- | --- | --- | --- | --- | --- | --- | --- | --- | --- | --- | --- |
| CCn1cc2c(N3CC[C@@H](N(C)C)C3)cc(F)c(C(=O)Nc3cc(F)c4nc(C)cn4c3)c2n1 [Compound 473, 4-[(3R)-3-(dimethylamino)pyrrolidin-1-yl]-2-ethyl-6-fluoro-N-{8-fluoro-2-methylimidazo[1,2-a]pyridin-6-yl}indazole-7-carboxamide; bis(trifluoroacetic acid)] | 1000 to 10000 | 1000 to 10000 | < 100 | < 100 | < 100 | < 100 | > 10000 | 1000 to 10000 |  |  |  |  |  |  |  |  |  |  |  |  |
| CCn1cc2c(N3CCNCC3)cc(F)c(C(=O)Nc3cc(F)c4nc(C)cn4c3)c2n1 [Compound 474, 2-ethyl-6-fluoro-N-{8-fluoro-2-methylimidazo[1,2-a]pyridin-6-yl}-4-(piperazin-1-yl) indazole-7-carboxamide] | < 100 | 100 to 1000 | < 100 | < 100 | < 100 | < 100 | 1000 to 10000 | 100 to 1000 |  |  |  |  |  |  |  |  |  |  |  |  |
| CCn1cc2c(N3C[C@@H](C)N[C@@H](C)C3)cc(F)c(C(=O)Nc3cc(F)c4nc(C)cn4c3)c2n1 [Compound 475, 4-[(3R,5S)-3,5-dimethylpiperazin-1-yl]-2-ethyl-6-fluoro-N-{8-fluoro-2-methylimidazo[1,2-a]pyridin-6-yl}indazole-7-carboxamide; trifluoroacetic acid] | 100 to 1000 | 100 to 1000 | < 100 | < 100 | < 100 | < 100 | 1000 to 10000 | 100 to 1000 |  |  |  |  |  |  |  |  |  |  |  |  |
| CCn1cc2c(NC3CCNCC3)ccc(C(=O)Nc3cc(F)c4nc(C)cn4c3)c2n1 [Compound 476, 2-ethyl-N-{8-fluoro-2-methylimidazo[1,2-a]pyridin-6-yl}-4-(piperidin-4-ylamino) indazole-7-carboxamide] | 100 to 1000 | 1000 to 10000 | 1000 to 10000 | 1000 to 10000 | 1000 to 10000 | 100 to 1000 | 1000 to 10000 | 100 to 1000 |  |  |  |  |  |  |  |  |  |  |  |  |
| CCn1cc2c(N3CC4(CNC4)C3)ccc(C(=O)Nc3cc(F)c4nc(C)cn4c3)c2n1 [Compound 477, 4-{2,6-diazaspiro[3.3]heptan-2-yl}-2-ethyl-N-{8-fluoro-2-methylimidazo[1,2-a]pyridin-6-yl}indazole-7-carboxamide] | 1000 to 10000 | > 10000 | 100 to 1000 | 100 to 1000 | 100 to 1000 | 100 to 1000 | > 10000 | 1000 to 10000 |  |  |  |  |  |  |  |  |  |  |  |  |
| Cc1cn2cc(NC(=O)c3ccc(N4CCNCC4)n4cc(C)nc34)cc(F)c2n1 [Compound 908] |  |  |  |  | < 100 | < 100 | 1000 to 10000 | 100 to 1000 | 100 to 1000 | 100 to 1000 | < 100 | < 100 |  |  |  |  |  |  |  |  |
| CCc1cc2c(N3CCNCC3)ccc(C(=O)Nc3cc(F)c4nc(C)cn4c3)n2n1 [Compound 916] |  |  |  |  |  |  |  |  |  |  |  |  | 100 to 1000 | 100 to 1000 | < 100 | < 100 | < 100 | < 100 | 100 to 1000 | 100 to 1000 |
| Cc1cn2cc(NC(=O)c3ncc(N4CCNCC4)c4cn(C)nc34)cc(F)c2n1 [Compound 932] |  |  |  |  | 1000 to 10000 | 100 to 1000 | > 10000 | > 10000 | > 10000 | > 10000 | 1000 to 10000 | 1000 to 10000 |  |  |  |  |  |  |  |  |
| Cc1cn2cc(NC(=O)c3ccc(N4CCNCC4)c4cc(C)nn34)cc(F)c2n1 [Compound 940] |  |  |  |  | < 100 | < 100 | 100 to 1000 | < 100 | 100 to 1000 | < 100 | < 100 | < 100 |  |  |  |  |  |  |  |  |
| Cc1cn2cc(NC(=O)c3ccc(N4CCNCC4)c4csnc34)cc(F)c2n1 [Compound 941] |  |  |  |  | < 100 | < 100 | 1000 to 10000 | 100 to 1000 | 100 to 1000 | 100 to 1000 | < 100 | < 100 |  |  |  |  |  |  |  |  |
| CCNC1CCN(c2ccc(C(=O)Nc3cc(F)c4nc(C)cn4c3)c3nc(CC)cn23)C1 (centres unmarked) [Compound 942] |  |  |  |  | 100 to 1000 | < 100 | 1000 to 10000 | 100 to 1000 | 1000 to 10000 | 100 to 1000 | 100 to 1000 | 100 to 1000 |  |  |  |  |  |  |  |  |
| CCc1cn2c(N3CCNCC3)ccc(C(=O)Nc3cc(F)c4nc(C)cn4c3)c2n1 [Compound 943] |  |  |  |  | < 100 | < 100 | 1000 to 10000 | 100 to 1000 | 1000 to 10000 | 100 to 1000 | < 100 | < 100 |  |  |  |  |  |  |  |  |
| CCNC1CCN(c2ccc(C(=O)Nc3cc(F)c4nc(C)cn4c3)c3nc(CC)sc23)C1 (centres unmarked) [Compound 944] |  |  |  |  | 100 to 1000 | < 100 | 1000 to 10000 | 1000 to 10000 | 1000 to 10000 | 1000 to 10000 | 100 to 1000 | 100 to 1000 |  |  |  |  |  |  |  |  |
| CCc1nc2c(C(=O)Nc3cc(F)c4nc(C)cn4c3)ccc(N3CCNCC3)c2s1 [Compound 945] |  |  |  |  | < 100 | < 100 | 1000 to 10000 | 1000 to 10000 | 1000 to 10000 | 1000 to 10000 | < 100 | < 100 |  |  |  |  |  |  |  |  |
| Cc1cn2cc(NC(=O)c3ccc(N4CCNCC4)c4nc(C)nn34)cc(F)c2n1 [Compound 946] |  |  |  |  | < 100 | < 100 | 100 to 1000 | < 100 | 100 to 1000 | < 100 | < 100 | < 100 |  |  |  |  |  |  |  |  |
| COc1c(NC(=O)c2ccc(N3CCNCC3)c3nc(C)nn23)cn2cc(C)nc2c1F [Compound 949] |  |  |  |  | < 100 | < 100 | < 100 | < 100 | < 100 | < 100 | < 100 | < 100 |  |  |  |  |  |  |  |  |
